Consider one compound from US8735622B2, “Histone demethylase inhibitors and methods for using the same” (The Regents of the University of Colorado, a body corporate, priority 2011, dated 2014).

One test deals with T1, LSD1 (Homo sapiens, UniProt O60341).
T1 construct: LSD1 (full-length) was expressed as glutathione S-transferase (GST) fusions; made in house; host or cells: Escherichia coli BL-21
In words: LSD1 formaldehyde dehydrogenase coupled assay. The format is biochemical. The following applies: in vitro. As to the method: LSD1 activity was measured in a formaldehyde dehydrogenase coupled assay. 15 μL enzyme mix containing 2.4 μg GST-LSD1 in 20 mM TRIS pH 8.5, 1 mM NAD, 1.5 mU formaldehyde dehydrogenase, 0.5 mM glutathione was added, followed by pin transfer of 100 nL compound. Then reactions were started by addition of 15 μL 75 μM H3(1-20)K4me2 peptide, and NADH fluorescence was measured on a Envision Microplate Imager (Perkin Elmer Life Sciences) with excitation at 345 nm and emission at 460 nm, integration for 400 ms at 10 min and 80 min after peptide addition.

The subject of the next test is KYSE150 cells. In words: Cell viability / growth inhibition assay (CellTiter-Glo). In kind it is cell-based, human. Particulars: 48 hours. The text has this: To examine the cellular activity of the compounds of the invention, oesophageal carcinoma cell line KYSE150 was used in a growth inhibition assay because KYSE150 cells have been reported to contain several copies of the GASC1 gene, and it has been reported that inhibition of GASC1 expression using short hairpin RNA causes a significant reduction of proliferation in KYSE150 cells. […] Without being bound by any theory, it is believed that this low activity in cells was possibly due to the poor cellular uptake of the zwitterion form in which it typically exists under physiological conditions. Therefore, its methyl ester prodrug 2 (FIG. 1a), called methylstat was tested.
To screen and validate the cellular toxicity of compounds, a cell viability assay was carried out using CellTiter-Glo luminescent cell viability assay kit (Promega, Madison USA). KYSE150 cells were seeded on blank-walled 384-well plates with KYSE medium at densities of 1,000 cells/well. The medium volume for each well was 40 μL. Cells were incubated at 37° C. in 5% CO2/95% air for 24 hours. The medium was removed from each well and replaced with 38 μL, of warmed fresh medium and 2 μL, compound solution in 2% DMSO/98% H2O. The compounds were added into medium at different concentrations with the final concentration of DMSO as 0.1%. After incubation at 37° C. with 5% CO2/95% air for another 48 hours, the plates were equilibrated to room temperature for 30 minutes. 40 μL, of CellTiter-Glo reagent (Promega, Madison USA) was added to each well and mixed for 2 minutes on an orbital shaker. The plate was incubated at room temperature for another 10 minutes to stabilize luminescent signal. The luminescence of each sample was measured in a plate-reading illuminometer (Beckman Coulter DTX 880) with parameters of 1-minute lag time and 0.1 second/well read time. The experiments were performed in triplicate and repeated on two separately initiated cultures.

For test [1], the system named is histone methylation marks in MCF7 cells. Kind of test: Western blotting of histone methylation marks in MCF7 cells. In kind it is cell-based, human. The following applies: MCF7 cells, 5, 10, 15 μM, 48 hours. (In western blotting, separated proteins are transferred to a membrane and probed.)
In test [2] the test system is H3K4me3 and H3K9me3 levels in MCF7 cells. In words: Quantitative immunostaining assay of H3K4me3 and H3K9me3 in MCF7 cells. The format is cell-based, human. Particulars: for EC50: Homo sapiens, 48 hours, immunostaining image quantification. The procedure: To quantify the cellular activity of methylstat, a quantitative image-based assay was used. […] The cellular effects of methylstat were also cell type-specific.
For quantified immunostaining experiments, KYSE150 or MCF7 cells were seeded in a 96-well plate at 10,000 cells per well and incubated at 37° C. for 24 hours. The medium was replaced and methylstat in DMSO was added at the concentration as indicated. After incubation for another 48 hours, immunostaining procedure was performed as described above using anti-H3K9me3 or anti-H3K4me3 primary antibody. Fluorescent images of cells were acquired by a Nikon Eclipse 90i fluorescence microscope and analyzed using the Cell Scoring analysis module of MetaMorph 7.0 software.

The target of test [3] is T2, human GASC1 (GST-GASC1(1-420)) (Homo sapiens, UniProt Q9H3R0).
T2 construct: corresponding to amino acid 1-420 was cloned and purified; made in house; host or cells: Escherichia coli BL-21
T2 sequence (Q9H3R0 1-420): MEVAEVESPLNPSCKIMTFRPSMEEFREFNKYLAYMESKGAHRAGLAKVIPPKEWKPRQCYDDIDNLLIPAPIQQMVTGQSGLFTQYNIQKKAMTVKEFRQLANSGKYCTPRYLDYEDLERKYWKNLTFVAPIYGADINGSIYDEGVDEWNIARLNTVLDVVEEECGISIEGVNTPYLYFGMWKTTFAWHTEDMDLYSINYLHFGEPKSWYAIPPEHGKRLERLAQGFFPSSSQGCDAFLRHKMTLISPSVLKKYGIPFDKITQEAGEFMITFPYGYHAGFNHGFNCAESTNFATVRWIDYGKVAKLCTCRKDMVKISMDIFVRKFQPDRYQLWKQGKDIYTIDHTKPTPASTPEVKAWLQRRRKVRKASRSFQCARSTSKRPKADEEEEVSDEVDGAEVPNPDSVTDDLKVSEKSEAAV
In words: GASC1 enzyme activity assay (DELFIA). The format is biochemical. The following applies: in vitro. The procedure: In order to evaluate the inhibitory activity of 1 in vitro, a GST-fusion protein of the catalytic N-terminus of human GASC1 (gene amplified in squamous cell carcinoma 1) corresponding to amino acid 1-420 was cloned and purified. […] To evaluate the enzyme specificity of 1, the activity of 1 was examined against several other related enzymes in vitro.
The enzyme activity assays for GASC1 and JMJD2A were established on the DELFIA platform. DELFIA assays were performed in white, opaque 384-well plates coated with Streptavidin (Perkin Elmer). GST-GASC1(1-420) was diluted to 200 ng/well in 20 mM Tris HCl pH 8.5/2 mM glutathione and added in a volume of 20 μL. Blank wells received Tris/glutathione buffer only. Test compounds were diluted in DMSO and […] was pinned into the wells. Blank and control wells received only compound buffer. The reactions were initiated by the addition of 500 nM biotin-H3(1-20)K9me3 substrate, 10 μM FeSO4, 100 μM alpha-ketoglutarate in a volume of 20 μL, and incubated at room temperature for 60 minutes. The plates were washed 3 times with 100 μL of Wash Buffer (50 mM Tris pH 7.4, 150 mM NaCl, 0.05% Tween 20, 0.2% BSA). […] Time resolved fluorescence was measured after 45 minutes on an Envision Microplate Imager (Perkin Elmer Life Sciences) with 400 μs delay, excitation at 360 nm, and emission at 620 nm.

The structures appear in SMILES notation. “Also recorded” adds a separate entry of the source. Where two headings read alike, the source gives them in different places.

`COC(=O)/C=C/C(=O)N(O)CCCCNCc1ccc(COC(=O)Nc2cccc3ccccc23)cc1` [methylstat]: the “inhibition of FAD-dependent HDM LSD1” value on LSD1 was “did not significantly inhibit”. In the test with KYSE150 cells (compound 1 at up to 100 μM), the “KYSE150 cell growth inhibition” value is listed as “inhibits KYSE150 cell growth”. Moreover, in the test on KYSE150 cells (Homo sapiens, KYSE-150, KYSE150 cells, read-out: half maximal growth inhibitory concentration (GI50)), the GI50 is around 5.1 µM. For the same compound, the “hypermethylation of histone proteins (Western blot)” value in test [1] is “induced concentration-dependent hypermethylation of lysine and arginine residues; also recorded: induced hypermethylations of histone proteins in a concentration-dependent manner”. Also, the “increase of the H3K9me3 mark” value in test [2] was 4.5 fold. For the same compound, the EC50 – broadly, the midpoint of the concentration-response curve – in test [2] (read-out: EC50 for H3K4me3) was found to be 6.7 µM; in test [2] (read-out: EC50 for H3K9me3), 6.3 µM. The “inhibition of enzymatic activity of GASC1” value in test [3] is “did not significantly inhibit”.
